Where two headings read alike, the source gives them in different places.
Assays:
[1] = system: multiple myeloma cell line NCI-H929; assay: H929 Cell Viability Assay; format: cell-based, human; settings: Homo sapiens
Method: The human multiple myeloma cell line NCI-H929 was cultured in Advanced RPMI 1640 media (Gibco®) supplemented with 6% fetal bovine serum, 2 mM Glutamine, and 1× Penicillin/Streptomycin. On the day of assay, cells were resuspended in RPMI 1640 media supplemented with 10% fetal bovine serum, 2 mM Glutamine, and 1× Penicillin/Streptomycin and plated in 384-well tissue culture plates and treated with compound dilutions in DMSO/media. Plates were incubated at 37° C., 5% CO2 for 48 hours. After 48 hours, Celltiter-Glo® (Promega) was added to each well and luciferase signal was quantified using Tecan Infinite M1000 Pro for cell viability determination.
(§1) For chemical structures that include one or more stereoisomers, but are illustrated without indicating stereochemistry, the assay data refers to a mixture of stereoisomers.

[2] = Liver Microsome Stability Assay, monkey; format: in vitro ADME; settings: monkey liver microsomes 1.0 mg/mL, 1.0 uM compound, 37° C., 1 mM NADPH
Method: (§2) Stability of a compound was assessed in the presence of liver microsomes from various sources—mouse, rat, monkey and human liver microsomes. 1.0 uM compound, 0.4% DMSO in 0.1 M Potassium Phosphate with 1.0 mg/mL liver microsomes, were incubated at 37° C. with or without 1 mM NADPH. The samples were quenched at 0, and 30 minutes.

[3] = system: PD1-ss+10aa/Gaussia Luciferase; assay: Dox-Induced PD1-ss-Gluc Assay; format: cell-based
Source text: Flp-In 293 T-REx™ cells were transfected with pcDNA™5/FRT/TO plasmid inserted with cDNA encoding Gaussia Luciferase fused to the 3′ end of cDNA encoding PD1 signal sequence plus 10 amino acids (N-[…]-C) (SEQ ID NO: 1). Transfected cells were selected for resistance to the selectable markers Hygromycin and Blasticidin to create a stable cell line that contained the PD1-ss+10aa/Gaussia Luciferase cDNA insert whose expression was regulated under the T-REx™ system. The day before assay, cells were trypsinized and plated in 384-well tissue culture plates. The next day, compound dilutions in DMSO/media containing doxycycline were added to the wells and incubated at 37° C., 5% CO2.
as §1

[4] = system: IL-2-FL/Gaussia Luciferase; assay: Dox Inducible IL2-FL-Gluc Assay; format: cell-based
Source text: Flp-In 293 T-REx™ cells were transfected with pcDNA™5/FRT/TO plasmid inserted with cDNA encoding Gaussia Luciferase fused to the 3′ end of cDNA encoding full length IL-2 (amino acids 1-153). Transfected cells were selected for resistance to the selectable markers Hygromycin and Blasticidin to create a stable cell line that contained the IL-2-FL/Gaussia Luciferase cDNA insert whose expression was regulated under the T-REx™ system. The day before assay, cells were trypsinized and plated in 384-well tissue culture plates. The next day, compound dilutions in DMSO/media containing doxycycline were added to the wells and incubated at 37° C., 5% CO2.
as §1

[5] = system: CD47(ss + 10)Gluc; assay: Dox-Induced CD47-ss-Gluc Assay; format: cell-based
[6] = system: multiple myeloma cell line U266B1; assay: U266 Cell Viability Assay; format: cell-based; settings: Homo sapiens
Method: The human multiple myeloma cell line U266B1 was cultured in RPMI 1640 media supplemented with 10% fetal bovine serum, 2 mM Glutamine, and 1× Penicillin/Streptomycin. Cells were plated in 384-well tissue culture plates and treated with compound dilutions in DMSO/media. Plates were incubated at 37° C., 5% CO2 for 48 hours. After 48 hours, Celltiter-Glo® (Promega) was added to each well and luciferase signal was quantified using Tecan Infinite M1000 Pro for cell viability determination.
as §1

[7] = Liver Microsome Stability Assay, human; format: in vitro ADME; settings: human liver microsomes 1.0 mg/mL, 1.0 uM compound, 37° C., 1 mM NADPH
Method: as §2

[8] = system: IL6R-ss+10aa/Gaussia Luciferase; assay: Dox-induced IL-6R-ss-Gluc Assay; format: cell-based
Source text: Flp-In 293 T-REx™ cells were transfected with pcDNATM5/FRT/TO plasmid inserted with cDNA encoding Gaussia Luciferase fused to the 3′ end of cDNA encoding IL6R signal sequence plus 10 amino acids (N-[…]-C). Transfected cells were selected for resistance to the selectable markers Hygromycin and Blasticidin to create a stable cell line that contained the IL6R-ss+10aa/Gaussia Luciferase cDNA insert whose expression was regulated under the T-REx™ system. The day before assay, cells were trypsinized and plated in 384-well tissue culture plates. The next day, compound dilutions in DMSO/media containing doxycycline were added to the wells and incubated at 37° C., 5% CO2.
as §1

[9] = Liver Microsome Stability Assay, mouse; format: in vitro ADME; settings: mouse liver microsomes 1.0 mg/mL, 1.0 uM compound, 37° C., 1 mM NADPH
Method: as §2

[10] = Liver Microsome Stability Assay, rat; format: in vitro ADME; settings: rat liver microsomes 1.0 mg/mL, 1.0 uM compound, 37° C., 1 mM NADPH
Method: as §2

[11] = NCI-H929 cells, 48 hours, Celltiter-Glo, read-out: 48 hr H929 Viability Celltiter-Glo: Mean EC50
[12] = Flp-In 293 T-REx cells, 24 hours with doxycycline; Table 1; read-out: 24 hr Dox Inducible PD1ssGluc 293FRT/TO: Mean IC50
[13] = Flp-In 293 T-REx cells, 24 hours with doxycycline; Table 1; read-out: 24 hr Dox Inducible IL2FLGluc 293FRT/TO: Mean IC50
[14] = ratio of IC50s IL2/PD1; Table 1
[15] = Flp-In 293 T-REx cells, 24 hours with doxycycline; Table 1; read-out: 24 hr Dox Inducible CD47(ss + 10)Gluc 293FRT/TO: Mean IC50
[16] = U-266, U266B1 cells, 48 hours, Celltiter-Glo, read-out: 48 hr U266 Viability Celltiter-Glo: Mean EC50
[17] = Flp-In 293 T-REx cells, 24 hours with doxycycline; Table 1; read-out: 24hr Dox Inducible IL6R(ss + 10)Gluc 293FRT/TO: Mean IC50
[18] = ratio of IC50s IL6R/PD1; Table 1
[19] = NCI-H929, 48 h, read-out: 48 hr H929 Viability Celltiter-Glo: Mean EC50 (nM)
[20] = read-out: 24 hr Dox Inducible PD1ssGluc 293FRT/TO: Mean IC50; Flp-In 293 T-REx cells, 24 hours with doxycycline; Table 1
[21] = read-out: 24 hr Dox Inducible IL2FLGluc 293FRT/TO: Mean IC50; Flp-In 293 T-REx cells, 24 hours with doxycycline; Table 1
[22] = read-out: 24 hr Dox Inducible CD47(ss + 10)Gluc 293FRT/TO: Mean IC50; Flp-In 293 T-REx cells, 24 hours with doxycycline; Table 1
[23] = U-266, 48 h, read-out: 48 hr U266 Viability Celltiter-Glo: Mean EC50 (nM)
[24] = read-out: 24hr Dox Inducible IL6R(ss + 10)Gluc 293FRT/TO: Mean IC50; Flp-In 293 T-REx cells, 24 hours with doxycycline; Table 1

Compound | EC50 [1, 11] [nM] | Liver Microsome Stability (Multiple Species): Monkey - % Remaining after 30 min w/ NADPH (%) [2] [%] | IC50 [3, 12] [µM] | IC50 [4, 13] [µM] | 24 hr Dox Inducible IL2FLGluc 293FRT/TO: IL2/PD1 [4, 14] | IC50 [5, 15] [µM] | EC50 [6, 16] [nM] | Liver Microsome Stability (Multiple Species): Human - % Remaining after 30 min w/ NADPH (%) [7] [%] | IC50 [8, 17] [µM] | 24hr Dox Inducible IL6R(ss + 10)Gluc 293FRT/TO: IL6R/PD1 [8, 18] | Liver Microsome Stability (Multiple Species): Mouse - % Remaining after 30 min w/ NADPH (%) [9] [%] | Liver Microsome Stability (Multiple Species): Rat - % Remaining after 30 min w/ NADPH (%) [10] [%] | EC50 [1, 19] [nM] | IC50 [3, 20] [µM] | IC50 [4, 21] [µM] | IC50 [5, 22] [µM] | EC50 [6, 23] [nM] | IC50 [8, 24] [µM]
CC(C)n1cnc(/C=C/c2csc(NC(=O)c3cc(Cl)cn3Cc3ccnc(F)c3)n2)c1Cl [Compound A1] | > 25000 | 31 | 0.03 | 2.02 | 66 | 1.86 | > 25000 | 11 | 1.89 | 62 | 71 | 82 | – | – | – | – | – | –
COc1cc(C(=O)Nc2nc(/C=C/c3ncn(C(C)C)c3Cl)cs2)n(Cc2ccnc(F)c2)c1 [Compound A2, (E)-N-(4-(2-(5-chloro-1-isopropyl-1H-imidazol-4-yl)vinyl)thiazol-2-yl)-1-((2-fluoropyridin-4-yl)methyl)-4-methoxy-1H-pyrrole-2-carboxamide] | > 25000 | 35 | 0.024 | 4.17 | 170 | 3.81 | > 25000 | 15 | 3.27 | 133 | 68 | 72 | – | – | – | – | – | –
O=C(Nc1nc(/C=C/c2cn(C(F)(F)F)cn2)cs1)c1cc(Cl)cn1Cc1ccnc(F)c1 [Compound A3, (E)-4-chloro-1-((2-fluoropyridin-4-yl)methyl)-N-(4-(2-(1-(trifluoromethyl)-1H-imidazol-4-yl)vinyl)thiazol-2-yl)-1H-pyrrole-2-carboxamide] | 4550 | 4 | 1.76 | 12.2 | 7 | 15.2 | > 20200 | 6 | 4.68 | 3 | 61 | 21 | – | – | – | – | – | –
CC(C(F)F)n1cnc(/C=C/c2csc(NC(=O)c3cc(Cl)cn3Cc3ccnc(F)c3)n2)c1 (stereo not drawn) [Compound A4, (E)-4-chloro-N-(4-(2-(1-(1,1-difluoropropan-2-yl)-1H-imidazol-4-yl)vinyl)thiazol-2-yl)-1-((2-fluoropyridin-4-yl)methyl)-1H-pyrrole-2-carboxamide] | – | 4 | – | – | 21 | – | – | 3 | – | 11 | 80 | 73 | > 23300 | 0.604 | 12.7 | 6.23 | > 25000 | 6.77
O=C(Nc1nc(/C=C/c2cn(C(F)F)cn2)cs1)c1cc(Cl)cn1Cc1ccnc(F)c1 [Compound A5, (E)-4-chloro-N-(4-(2-(1-(difluoromethyl)-1H-imidazol-4-yl)vinyl)thiazol-2-yl)-1-((2-fluoropyridin-4-yl)methyl)-1H-pyrrole-2-carboxamide] | – | 2 | – | – | >57 | – | – | 4 | – | >57 | 73 | 42 | 10100 | 0.436 | > 25 | > 25 | 16800 | > 25
O=C(Nc1nc(/C=C/C2CCC(F)(F)CC2)cs1)c1cccn1Cc1ccnc(F)c1 [Compound B29, (E)-N-(4-(2-(4,4-difluorocyclohexyl)vinyl)thiazol-2-yl)-1-((2-fluoropyridin-4-yl)methyl)-1H-pyrrole-2-carboxamide] | – | – | 0.112 | 1.43 | 12.0 | 0.838 | – | – | 0.922 | 8 | – | – | – | – | – | – | – | –
